Data on 10 compounds can be found in US10323018B2 (Millennium Pharmaceuticals, Inc., priority 2015, dated 2019).

One test concerns the target hNAMPT protein (Homo sapiens (Human), UniProt P43490). The test can be described thus: NAMPT enzyme assay (TR-FRET/HTRF with BodiPY ligand). Format: binding. As to conditions: for inhibition at 1 µM: NAMPT inhibition at compound concentration 1 μM, read-out: Percent Inhibition; for IC50: NAMPT inhibition, IC50 range class. The procedure, abridged: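 His-tagged hNAMPT with anti-6His-Tb, incubated with compound and BodiPY ligand for 1 h at rt in the dark, in Tris-HCl pH 7.5 buffer with DTT, NaCl, MgCl2 and Tween 20. TR-FRET measured with 320 nm excitation as the 520/486 nm emission ratio. IC50 fitted relative to DMSO controls.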

A further test relates to PC3 cells. The test can be described thus: PC3 growth inhibition (Cell-titer glo, 72 hours). Format: cell-based. The following applies: Homo sapiens, PC-3, 72 h, read-out: Percent Viability, PC3 cells, compound concentration 1.667 μM, 72 hours. The procedure, abridged: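 PC3 cells grown in RPMI1640 plated at 8×10^4 cells/ml, incubated overnight, then exposed to compound diluted in AIM serum-free medium for 72 h at 37 °C, 5% CO2. Luminescence by CellTiter-Glo relative to DMSO controls; % viability at single concentration, GI50 or LD50 from concentration-response curves.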

Chain of hNAMPT protein (P43490 whole entry): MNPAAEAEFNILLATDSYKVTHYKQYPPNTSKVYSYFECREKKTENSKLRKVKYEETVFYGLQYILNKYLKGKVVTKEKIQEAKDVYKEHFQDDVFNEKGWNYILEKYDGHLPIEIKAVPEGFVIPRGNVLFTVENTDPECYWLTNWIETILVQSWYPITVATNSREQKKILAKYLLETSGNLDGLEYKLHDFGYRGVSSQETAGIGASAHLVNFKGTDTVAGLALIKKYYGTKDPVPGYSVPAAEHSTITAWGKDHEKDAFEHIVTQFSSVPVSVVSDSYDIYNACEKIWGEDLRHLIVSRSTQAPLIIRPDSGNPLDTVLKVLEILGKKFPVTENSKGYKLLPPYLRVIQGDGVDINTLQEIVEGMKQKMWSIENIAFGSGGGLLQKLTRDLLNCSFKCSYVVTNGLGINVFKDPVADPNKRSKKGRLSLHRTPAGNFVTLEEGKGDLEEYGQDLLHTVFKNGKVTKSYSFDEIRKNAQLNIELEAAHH

As for `CCOc1cc(-c2ccc(F)cc2)nc2cc(C(=O)NCCCc3nnc(N)[nH]3)ccc12` [Compound I-220, N-[3-(5-amino-4H-1,2,4-triazol-3-yl)propyl]-4-ethoxy-2-(4-fluorophenyl)quinoline-7-carboxamide], at hNAMPT protein, the inhibition at 1 µM worked out at 92% and the 50% inhibitory concentration (IC50) lay within 50 to 100 nM. In the test with PC3 cells, the viability at 1.667 µM amounted to 2%.

Consider `CCOc1cc(-c2ccc(F)cc2)nc2cc(C(=O)NCCc3nn[nH]n3)ccc12` [Compound I-221, 4-ethoxy-2-(4-fluorophenyl)-N-[2-(2H-tetrazol-5-yl)ethyl]quinoline-7-carboxamide], for which, at hNAMPT protein, the inhibition at 1 µM was determined as 53% and the half-inhibitory concentration (IC50) was over 100 nM. The viability at 1.667 µM with PC3 cells turned out to be 89%.

Take `CCOc1cc(-c2ccc(F)cc2)nc2cc(C(=O)N[C@H]3C[C@@H](c4nnc[nH]4)C3)ccc12` [Compound I-222, 4-ethoxy-2-(4-fluorophenyl)-N-[cis-3-(4H-1,2,4-triazol-3-yl)cyclobutyl]quinoline-7-carboxamide]: at hNAMPT protein, the inhibition at 1 µM is 96% and the IC50 was 10 to 50 nM. Moreover, the viability at 1.667 µM with PC3 cells worked out at 4%.

On to `CCOc1cc(-c2ccc(C)s2)nc2cc(C(=O)NCCCc3nnc[nH]3)ccc12` [Compound I-223, 4-ethoxy-2-(5-methyl-2-thienyl)-N-[3-(4H-1,2,4-triazol-3-yl)propyl]quinoline-7-carboxamide], for which, at hNAMPT protein, the inhibition at 1 µM was over 99% and the 50% inhibitory concentration (IC50) lay within 10 to 50 nM. Besides, in the test with PC3 cells, the viability at 1.667 µM is 3%.

With `CCOc1cc(-c2ccc(F)cc2)nc2cc(C(=O)NCCCc3cncn3C)ccc12` [Compound I-224, 4-ethoxy-2-(4-fluorophenyl)-N-[3-(1-methyl-1H-imidazol-5-yl)propyl]quinoline-7-carboxamide], at hNAMPT protein, the inhibition at 1 µM is over 99% and the half-inhibitory concentration (IC50) is under 10 nM. Moreover, the viability at 1.667 µM with PC3 cells was found to be 2%.

Take `CCOc1cc(-c2cc(OC)ncc2F)nc2cc(C(=O)NCCCc3nnc[nH]3)ccc12` [Compound I-225, 4-ethoxy-2-(5-fluoro-2-methoxypyridin-4-yl)-N-[3-(4H-1,2,4-triazol-3-yl)propyl]quinoline-7-carboxamide]: on hNAMPT protein, the inhibition at 1 µM was determined as 97% and the IC50 was 10 to 50 nM. In addition, the viability at 1.667 µM in the test with PC3 cells amounted to 2%.

Consider `CCCc1cc(OCC)c2ccc(C(=O)NCCCc3ncc[nH]3)cc2n1` [Compound I-226, N-(3-(1H-imidazol-2-yl)propyl)-4-ethoxy-2-propylquinoline-7-carboxamide], for which, at hNAMPT protein, the inhibition at 1 µM is 86% and the IC50 is over 100 nM. For the same compound, in the test with PC3 cells, the viability at 1.667 µM was 14%.

On to `CCOc1cc(-c2ccc(F)cc2)nc2cc(C(=O)NCCCc3ccc(C)nc3)ccc12` [Compound I-227, 4-ethoxy-2-(4-fluorophenyl)-N-[3-(6-methylpyridin-3-yl)propyl]quinoline-7-carboxamide], for which, on hNAMPT protein, the inhibition at 1 µM was 100% and the half-inhibitory concentration (IC50) is under 10 nM. The viability at 1.667 µM in the test on PC3 cells came to 6%.

Consider `CCOc1cc(-c2ccc(F)cc2)nc2cc(C(=O)NCCCc3cncnc3)ccc12` [Compound I-228, 4-ethoxy-2-(4-fluorophenyl)-N-[3-(pyrimidin-5-yl)propyl]quinoline-7-carboxamide], for which, at hNAMPT protein, the inhibition at 1 µM came to 94% and the concentration for half-maximal inhibition (IC50) is under 10 nM. In addition, the viability at 1.667 µM with PC3 cells stood at 5%.

Turning to `O=C(NCCCc1ncc[nH]1)c1ccc2c(OCCO)cc(-c3ccc(F)cc3)nc2c1` [Compound I-229, 2-(4-fluorophenyl)-4-(2-hydroxyethoxy)-N-[3-(1H-imidazol-2-yl)propyl]quinoline-7-carboxamide], on hNAMPT protein, the inhibition at 1 µM came out at 99% and the IC50 is under 10 nM. Besides, the viability at 1.667 µM in the test with PC3 cells was 2%.

What is called inhibition is the percentage by which the read-out fell short of the control. What is called IC50 is the concentration that gives 50% inhibition. Read a high IC50 as weaker potency.
